The text below walks through data of US9682141B2, “Combination of kinase inhibitors and uses thereof” (INTELLIKINE LLC, priority 2011, dated 2017).

Format in all cases: biochemical
Experiment [1] deals with PI3K δ (Homo sapiens (Human), UniProt O00329). Description: PI 3-Kinase (human) HTRF assay, p110δ/p85α.
Experiment [2] concerns the target PI3K α (Homo sapiens (Human), UniProt P42336). Kind of experiment: PI 3-Kinase (human) HTRF assay, p110α/p85α.
Experiment [3] concerns the target PI3K γ (Homo sapiens (Human), UniProt P48736). Kind of experiment: PI 3-Kinase (human) HTRF assay, p110γ. Conditions: read-out: PI3K γ IC50.
For experiment [4], the target named is PI3K β (Homo sapiens (Human), UniProt P42338). Description: PI 3-Kinase (human) HTRF assay, p110β/p85α.
Sequence of PI3K β (P42338 whole entry): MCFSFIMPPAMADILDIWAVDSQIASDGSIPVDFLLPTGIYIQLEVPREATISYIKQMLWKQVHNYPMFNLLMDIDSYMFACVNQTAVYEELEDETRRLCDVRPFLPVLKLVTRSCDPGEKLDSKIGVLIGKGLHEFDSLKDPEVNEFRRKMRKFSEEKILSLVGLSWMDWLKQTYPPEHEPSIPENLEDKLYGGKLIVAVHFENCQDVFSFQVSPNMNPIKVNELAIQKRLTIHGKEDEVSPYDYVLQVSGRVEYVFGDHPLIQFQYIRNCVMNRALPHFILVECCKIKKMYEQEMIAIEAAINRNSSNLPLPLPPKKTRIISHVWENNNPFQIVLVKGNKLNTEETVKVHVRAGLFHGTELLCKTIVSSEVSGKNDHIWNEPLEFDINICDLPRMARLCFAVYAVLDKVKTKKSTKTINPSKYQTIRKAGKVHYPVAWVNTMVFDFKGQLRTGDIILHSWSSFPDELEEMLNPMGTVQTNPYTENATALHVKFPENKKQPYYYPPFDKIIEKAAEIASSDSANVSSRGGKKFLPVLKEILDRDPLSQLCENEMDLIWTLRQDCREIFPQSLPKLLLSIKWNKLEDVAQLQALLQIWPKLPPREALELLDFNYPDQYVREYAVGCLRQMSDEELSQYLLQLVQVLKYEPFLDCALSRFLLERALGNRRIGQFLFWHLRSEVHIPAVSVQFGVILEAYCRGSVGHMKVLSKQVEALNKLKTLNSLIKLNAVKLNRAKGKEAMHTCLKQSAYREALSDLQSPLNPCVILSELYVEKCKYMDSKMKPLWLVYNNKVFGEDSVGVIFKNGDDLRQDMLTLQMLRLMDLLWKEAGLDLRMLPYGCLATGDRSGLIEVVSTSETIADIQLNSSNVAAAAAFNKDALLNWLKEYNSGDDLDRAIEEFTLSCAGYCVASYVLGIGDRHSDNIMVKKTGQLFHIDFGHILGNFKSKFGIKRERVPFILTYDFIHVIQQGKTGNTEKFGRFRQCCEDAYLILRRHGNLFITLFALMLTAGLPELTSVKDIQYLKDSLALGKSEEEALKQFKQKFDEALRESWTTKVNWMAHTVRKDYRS
Sequence of PI3K β (P27986 whole entry partner): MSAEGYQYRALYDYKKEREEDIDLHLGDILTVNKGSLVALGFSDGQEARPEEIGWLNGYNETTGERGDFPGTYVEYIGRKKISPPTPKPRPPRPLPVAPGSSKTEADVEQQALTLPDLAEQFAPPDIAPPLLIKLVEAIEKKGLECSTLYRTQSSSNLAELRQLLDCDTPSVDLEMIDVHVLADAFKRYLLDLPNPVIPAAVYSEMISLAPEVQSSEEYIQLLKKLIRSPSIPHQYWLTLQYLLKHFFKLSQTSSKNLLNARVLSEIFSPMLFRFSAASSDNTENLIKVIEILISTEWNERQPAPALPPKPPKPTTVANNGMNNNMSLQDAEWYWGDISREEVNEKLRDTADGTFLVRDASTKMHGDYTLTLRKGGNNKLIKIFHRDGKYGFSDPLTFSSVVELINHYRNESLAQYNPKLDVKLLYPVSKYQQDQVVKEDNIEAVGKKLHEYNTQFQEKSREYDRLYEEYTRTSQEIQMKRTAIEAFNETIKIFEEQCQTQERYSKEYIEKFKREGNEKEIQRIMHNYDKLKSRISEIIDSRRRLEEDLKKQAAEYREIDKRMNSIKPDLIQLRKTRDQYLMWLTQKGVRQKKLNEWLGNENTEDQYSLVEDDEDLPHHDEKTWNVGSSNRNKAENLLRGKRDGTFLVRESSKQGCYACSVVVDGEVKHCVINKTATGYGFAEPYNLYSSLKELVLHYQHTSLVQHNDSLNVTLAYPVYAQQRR

Structures are written as SMILES.

Sequence of PI3K γ (P48736 whole entry): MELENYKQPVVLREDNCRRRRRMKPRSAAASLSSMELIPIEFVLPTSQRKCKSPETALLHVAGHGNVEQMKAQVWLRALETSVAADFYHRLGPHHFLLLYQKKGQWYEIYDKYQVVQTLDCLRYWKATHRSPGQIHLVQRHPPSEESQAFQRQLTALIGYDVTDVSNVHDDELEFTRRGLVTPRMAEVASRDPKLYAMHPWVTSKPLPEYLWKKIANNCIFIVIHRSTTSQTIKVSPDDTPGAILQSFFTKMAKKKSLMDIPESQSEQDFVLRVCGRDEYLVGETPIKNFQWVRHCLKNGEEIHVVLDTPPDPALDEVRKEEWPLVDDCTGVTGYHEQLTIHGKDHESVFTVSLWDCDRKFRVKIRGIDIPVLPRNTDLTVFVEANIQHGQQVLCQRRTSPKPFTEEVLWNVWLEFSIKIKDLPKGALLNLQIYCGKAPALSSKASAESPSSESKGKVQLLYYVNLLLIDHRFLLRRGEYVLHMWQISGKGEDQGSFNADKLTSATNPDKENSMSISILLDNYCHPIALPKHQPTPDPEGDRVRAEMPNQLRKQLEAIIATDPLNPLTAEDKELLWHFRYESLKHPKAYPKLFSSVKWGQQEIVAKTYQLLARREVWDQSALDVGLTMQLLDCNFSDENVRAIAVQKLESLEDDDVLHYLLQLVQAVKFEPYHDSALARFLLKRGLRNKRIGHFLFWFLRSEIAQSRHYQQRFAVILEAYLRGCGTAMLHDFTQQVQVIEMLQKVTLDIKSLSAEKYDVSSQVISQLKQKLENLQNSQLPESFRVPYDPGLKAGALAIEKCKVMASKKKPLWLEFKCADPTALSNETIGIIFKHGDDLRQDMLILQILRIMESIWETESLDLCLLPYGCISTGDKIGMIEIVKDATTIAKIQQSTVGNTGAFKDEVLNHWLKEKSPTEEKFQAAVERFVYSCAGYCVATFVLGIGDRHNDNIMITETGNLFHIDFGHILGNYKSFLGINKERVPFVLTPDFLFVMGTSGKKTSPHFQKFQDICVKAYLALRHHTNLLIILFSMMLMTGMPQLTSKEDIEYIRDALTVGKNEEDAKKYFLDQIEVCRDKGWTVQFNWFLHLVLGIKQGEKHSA
Sequence of PI3K α (P42336 whole entry): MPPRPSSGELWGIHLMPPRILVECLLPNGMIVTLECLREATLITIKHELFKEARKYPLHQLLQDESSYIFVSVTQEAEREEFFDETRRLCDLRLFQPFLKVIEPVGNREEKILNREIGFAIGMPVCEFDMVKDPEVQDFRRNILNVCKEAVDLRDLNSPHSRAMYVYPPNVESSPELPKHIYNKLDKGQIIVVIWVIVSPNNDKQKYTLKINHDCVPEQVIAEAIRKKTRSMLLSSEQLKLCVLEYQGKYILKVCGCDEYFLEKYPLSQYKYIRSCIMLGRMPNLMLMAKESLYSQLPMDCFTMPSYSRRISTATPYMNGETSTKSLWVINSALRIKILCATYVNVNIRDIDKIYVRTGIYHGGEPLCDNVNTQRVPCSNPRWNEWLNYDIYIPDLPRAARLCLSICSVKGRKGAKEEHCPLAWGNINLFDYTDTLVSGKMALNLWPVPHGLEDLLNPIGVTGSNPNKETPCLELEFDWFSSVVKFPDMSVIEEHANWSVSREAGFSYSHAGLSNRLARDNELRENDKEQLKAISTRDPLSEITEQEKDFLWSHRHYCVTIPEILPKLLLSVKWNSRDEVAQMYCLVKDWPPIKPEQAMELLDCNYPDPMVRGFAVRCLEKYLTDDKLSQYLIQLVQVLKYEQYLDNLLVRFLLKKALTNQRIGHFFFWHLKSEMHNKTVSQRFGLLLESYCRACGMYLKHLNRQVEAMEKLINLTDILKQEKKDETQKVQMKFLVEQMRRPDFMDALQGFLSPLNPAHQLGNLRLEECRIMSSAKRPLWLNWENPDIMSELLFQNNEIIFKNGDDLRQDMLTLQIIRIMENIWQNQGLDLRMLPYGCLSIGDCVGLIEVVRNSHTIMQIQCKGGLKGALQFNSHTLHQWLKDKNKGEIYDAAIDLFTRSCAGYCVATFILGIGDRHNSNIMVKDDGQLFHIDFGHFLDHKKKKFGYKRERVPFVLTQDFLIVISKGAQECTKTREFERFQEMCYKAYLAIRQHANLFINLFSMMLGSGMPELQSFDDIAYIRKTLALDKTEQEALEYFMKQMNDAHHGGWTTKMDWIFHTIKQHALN
Sequence of PI3K α (P27986 whole entry partner): as the sequence (P27986 whole entry partner) above
Sequence of PI3K δ (O00329 whole entry): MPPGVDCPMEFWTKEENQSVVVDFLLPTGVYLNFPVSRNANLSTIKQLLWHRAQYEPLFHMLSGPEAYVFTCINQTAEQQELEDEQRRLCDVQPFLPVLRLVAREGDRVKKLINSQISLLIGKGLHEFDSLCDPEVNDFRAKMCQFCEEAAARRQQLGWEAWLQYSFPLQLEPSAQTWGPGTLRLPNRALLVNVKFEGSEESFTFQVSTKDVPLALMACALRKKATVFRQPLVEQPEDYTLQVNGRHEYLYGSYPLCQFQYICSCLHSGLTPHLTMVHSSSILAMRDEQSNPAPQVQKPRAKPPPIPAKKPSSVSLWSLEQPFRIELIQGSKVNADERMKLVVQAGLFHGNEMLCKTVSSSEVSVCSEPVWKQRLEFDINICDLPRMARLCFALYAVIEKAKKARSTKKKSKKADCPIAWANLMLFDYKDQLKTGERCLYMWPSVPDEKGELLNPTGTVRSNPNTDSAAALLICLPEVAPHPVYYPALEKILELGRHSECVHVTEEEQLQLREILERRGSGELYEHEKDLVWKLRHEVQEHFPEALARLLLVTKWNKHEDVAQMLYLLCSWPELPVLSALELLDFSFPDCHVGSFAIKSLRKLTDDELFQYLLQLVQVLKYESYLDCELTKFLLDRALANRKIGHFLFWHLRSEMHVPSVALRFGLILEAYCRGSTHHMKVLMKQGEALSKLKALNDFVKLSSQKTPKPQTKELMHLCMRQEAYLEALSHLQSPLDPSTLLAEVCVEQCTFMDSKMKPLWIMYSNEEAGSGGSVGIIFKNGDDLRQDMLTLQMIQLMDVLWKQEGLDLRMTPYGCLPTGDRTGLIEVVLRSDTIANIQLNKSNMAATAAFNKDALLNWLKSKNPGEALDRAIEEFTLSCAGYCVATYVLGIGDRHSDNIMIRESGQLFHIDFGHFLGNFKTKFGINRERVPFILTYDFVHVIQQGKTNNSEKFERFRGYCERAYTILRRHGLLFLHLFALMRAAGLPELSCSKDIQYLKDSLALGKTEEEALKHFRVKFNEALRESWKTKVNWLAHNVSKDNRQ
Sequence of PI3K δ (P27986 whole entry partner): as the sequence (P27986 whole entry partner) above

In the case of `CC(=O)Nc1cn2cc(-c3ccc4nccc(-c5ccncc5)c4c3)ccc2n1` [Compound 19], the IC50 in experiment [1], in experiment [2], in experiment [3] and in experiment [4] was above 10 µM throughout.
As for `Nc1nc2cc(-c3ccc4ncc(N5CCOCC5)n4n3)ccc2o1`, the IC50 in experiment [1] is above 10 µM; in experiment [2] it was below 1 µM; in experiment [3], below 10 µM; in experiment [4] it was below 1 µM.
On to `Nc1nc2cc(-c3ccc4ncc(C(=O)Nc5cccnc5)n4c3)ccc2o1`, for which the IC50 was below 1 µM in experiment [1], below 0.1 µM in experiment [2], below 0.1 µM in experiment [3] and above 10 µM in experiment [4].
Regarding `Nc1nc2cc(-c3cn4c(-c5ccncc5)cnc4cn3)ccc2o1`, the IC50 was below 10 µM in experiment [1], below 0.1 µM in experiment [2], below 1 µM in experiment [3] and below 10 µM in experiment [4].
`Nc1nc2cc(-c3ccc4ncc(N5CC6CCC(C5)O6)cc4n3)ccc2o1`: the IC50 in experiment [1] is above 10 µM; in experiment [2], below 0.1 µM; in experiment [3], below 0.1 µM; in experiment [4], above 10 µM.
Turning to `CC(C)N1CCC(Nc2ncnc3ccc(-c4ccc5oc(N)nc5c4)cc23)CC1`, the IC50 is below 1 µM in experiment [1], below 0.1 µM in experiment [2], below 10 µM in experiment [3] and below 10 µM in experiment [4].
Take `CC(C)(C#N)c1ccc(Nc2ncnc3ccc(-c4ccc5oc(N)nc5c4)cc23)cc1`: the IC50 is below 1 µM in experiment [1], below 0.1 µM in experiment [2], below 0.1 µM in experiment [3] and below 1 µM in experiment [4].
As to `Nc1nc2cc(-c3ccc4ncc(N5CCCC5)nc4c3)ccc2o1`, the IC50 in experiment [1] is below 1 µM; in experiment [2] it was below 0.1 µM; in experiment [3], below 0.1 µM; in experiment [4], below 1 µM.
Consider `CN1CCN(c2cnc3ccc(-c4ccc5nc(N)oc5c4)cc3n2)CC1`, for which the IC50 in experiment [1] was above 10 µM; in experiment [2] it was below 1 µM; in experiment [3], below 10 µM; in experiment [4], below 0.1 µM.
On to `CS(=O)(=O)CCN1CCN(c2cnc3ccc(-c4ccc5oc(N)nc5c4)cc3n2)CC1`, for which the IC50 in experiment [1] is below 10 µM; in experiment [2] it was below 0.1 µM; in experiment [3] it was below 1 µM; in experiment [4], below 1 µM.
Regarding `Cc1nc2ccc(-c3ccc4oc(N)nc4c3)cn2c1C(=O)N1CCOCC1`, the IC50 in experiment [1], in experiment [2], in experiment [3] and in experiment [4] was above 10 µM throughout.
On to `NCC(=O)N1CCN(c2cnc3ccc(-c4ccc5oc(N)nc5c4)nc3n2)CC1`, for which the IC50 in experiment [1] was below 10 µM; in experiment [2], below 0.1 µM; in experiment [3] it was below 10 µM; in experiment [4], below 10 µM.
Consider `Nc1nc2cc(-c3ccc4ncc(N5CC(N6CCNCC6)C5)nc4n3)ccc2o1`, for which the IC50 in experiment [1] was above 10 µM; in experiment [2], below 1 µM; in experiment [3], above 10 µM; in experiment [4] it was above 10 µM.
Regarding `Nc1nc2cc(-c3ccc4ncc(-c5ccncc5)nc4c3)ccc2o1`, the IC50 was below 1 µM in experiment [1], below 0.1 µM in experiment [2], below 0.1 µM in experiment [3] and below 10 µM in experiment [4].
Take `Nc1nc2cc(-c3ccc4nc(N5CCOCC5)cnc4n3)ccc2o1`: the IC50 in experiment [1], in experiment [2], in experiment [3] and in experiment [4] was above 10 µM throughout.
With `Nc1nc2cc(-c3ccc4ncnc(NC5CCOCC5)c4c3)ccc2o1` [Compound 24], the IC50 in experiment [1] is below 0.1 µM; in experiment [2] it was below 0.1 µM; in experiment [3], below 0.1 µM; in experiment [4], below 1 µM.
For `Nc1nc2cc(-c3ccc4ncc(-c5cccnc5)cc4n3)ccc2o1`, the IC50 is below 10 µM in experiment [1], below 0.1 µM in experiment [2], below 0.1 µM in experiment [3] and below 10 µM in experiment [4].
In the case of `C[C@H]1COCCN1c1cnc2ccc(-c3ccc4oc(N)nc4c3)nc2n1`, the IC50 in experiment [1] is above 10 µM; in experiment [2] it was below 0.1 µM; in experiment [3], below 0.1 µM; in experiment [4], below 10 µM.
In the case of `CN1CCN(C(=O)c2cnc3ccc(-c4ccc5oc(N)nc5c4)nn23)CC1`, the IC50 was above 10 µM in experiment [1], below 10 µM in experiment [2], below 10 µM in experiment [3] and above 10 µM in experiment [4].
For the compound `Nc1nsc2ccc(-c3ccc4nccc(-c5ccncc5)c4c3)cc12` [Compound 12], the IC50 in experiment [1], in experiment [2], in experiment [3] and in experiment [4] was above 10 µM in each case.
Take `CN1CCN(c2ccc3ncc(-c4ccc5oc(N)nc5c4)cc3n2)CC1`: the IC50 in experiment [1] is above 10 µM; in experiment [2] it was below 10 µM; in experiment [3], above 10 µM; in experiment [4] it was below 10 µM.
With `CN1CCN(C(=O)c2cnc3ccc(-c4ccc5nc(N)sc5c4)cn23)CC1`, the IC50 was above 10 µM in experiment [1], below 10 µM in experiment [2], above 10 µM in experiment [3] and below 10 µM in experiment [4].
Turning to `Nc1nc2ccc(-c3ccc4ncc(C(=O)N5CCOCC5)n4c3)cc2o1`, the IC50 was above 10 µM in experiment [1], below 1 µM in experiment [2], below 1 µM in experiment [3] and below 1 µM in experiment [4].
Turning to `CC1CN(c2cnc3ccc(-c4ccc5oc(N)nc5c4)cc3n2)CCO1` (centres unmarked), the IC50 was below 10 µM in experiment [1], below 0.1 µM in experiment [2], below 0.1 µM in experiment [3] and below 1 µM in experiment [4].
For `Nc1nc2cc(-c3ccc4ncc(C(=O)N5CCN(CCO)CC5)n4c3)ccc2o1`, the IC50 in experiment [1] was above 10 µM; in experiment [2], below 0.1 µM; in experiment [3] it was below 10 µM; in experiment [4], above 10 µM.
`Cc1nccn1-c1cnc2ccc(-c3ccc4oc(N)nc4c3)cc2n1`: the IC50 in experiment [1] was below 10 µM; in experiment [2], below 0.1 µM; in experiment [3], below 0.1 µM; in experiment [4], below 1 µM.
Turning to `Nc1nc2ccc(-c3ccc4ncn(C5CCOCC5)c(=O)c4c3)cc2o1`, the half-maximal inhibitory concentration (IC50) in experiment [1] was above 10 µM; in experiment [2] it was below 10 µM; in experiment [3], above 10 µM; in experiment [4], above 10 µM.
As for `Nc1nc2cc(-c3cn4c(C(=O)N5CCOCC5)cnc4cn3)ccc2o1`, the IC50 in experiment [1], in experiment [2], in experiment [3] and in experiment [4] was above 10 µM throughout.
Regarding `CC1CN(C(=O)c2cnc3ccc(-c4ccc5oc(N)nc5c4)cn23)CC(C)N1` (centres unmarked), the IC50 in experiment [1] was above 10 µM; in experiment [2], below 10 µM; in experiment [3], above 10 µM; in experiment [4] it was above 10 µM.
On to `CCN1CCN(C(=O)c2cnc3ccc(-c4ccc5oc(N)nc5c4)cn23)CC1`, for which the 50% inhibitory concentration (IC50) in experiment [1] was above 10 µM; in experiment [2], below 1 µM; in experiment [3], below 10 µM; in experiment [4], above 10 µM.
As for `CCN(CC)c1cnc2ccc(-c3ccc4oc(N)nc4c3)nc2n1`, the IC50 in experiment [1] is below 10 µM; in experiment [2], below 1 µM; in experiment [3], below 1 µM; in experiment [4], above 10 µM.
In the case of `C[C@H]1CN(c2cnc3ccc(-c4ccc5oc(N)nc5c4)cc3n2)CCN1`, the IC50 was below 1 µM in experiment [1], below 0.1 µM in experiment [2], below 1 µM in experiment [3] and below 0.1 µM in experiment [4].
`Nc1nc2cc(-c3ccc4ncc(C5=CCOCC5)nc4n3)ccc2o1`: the IC50 was above 10 µM in experiment [1], below 0.1 µM in experiment [2], below 0.1 µM in experiment [3] and below 10 µM in experiment [4].
On to `CC(C)N1CCN(C(=O)c2cnc3ccc(-c4ccc5oc(N)nc5c4)cn23)CC1`, for which the IC50 in experiment [1] was above 10 µM; in experiment [2], below 0.1 µM; in experiment [3], above 10 µM; in experiment [4], below 10 µM.
Take `CCN1CCC(n2cnc3ccc(-c4ccc5oc(N)nc5c4)cc3c2=O)CC1`: the IC50 in experiment [1] was above 10 µM; in experiment [2], below 1 µM; in experiment [3], above 10 µM; in experiment [4], below 10 µM.
For the compound `Nc1nc2cc(-c3ccc4ncn(C5CCNCC5)c(=O)c4c3)ccc2o1`, the IC50 in experiment [1] is above 10 µM; in experiment [2], below 0.1 µM; in experiment [3] it was below 10 µM; in experiment [4] it was below 10 µM.
For `CC(C)N1CCN(c2cnc3ccc(-c4ccc5oc(N)nc5c4)cc3n2)CC1`, the IC50 was below 1 µM in experiment [1], below 0.1 µM in experiment [2], below 0.1 µM in experiment [3] and below 0.1 µM in experiment [4].
As to `Nc1nc2ccc(-c3ccc4ncc(N5CCOCC5)nc4c3)cc2o1`, the IC50 in experiment [1] was above 10 µM; in experiment [2], below 0.1 µM; in experiment [3], below 1 µM; in experiment [4] it was below 1 µM.
Consider `Nc1nc2cc(-c3ccc4ncn(C5CCOCC5)c4c3)ccc2o1` [Compound 48], for which the IC50 in experiment [1] is above 10 µM; in experiment [2], below 10 µM; in experiment [3], above 10 µM; in experiment [4], above 10 µM.
For `CCNC(=O)c1cnc2ccc(-c3ccc4oc(N)nc4c3)cn12`, the IC50 in experiment [1] was below 1 µM; in experiment [2], below 0.1 µM; in experiment [3], below 0.1 µM; in experiment [4] it was below 1 µM.
As to `CN(CCN1CCOCC1)c1cnc2ccc(-c3ccc4oc(N)nc4c3)cc2n1`, the IC50 was above 10 µM in experiment [1], below 1 µM in experiment [2], below 10 µM in experiment [3] and below 10 µM in experiment [4].
For the compound `CN1CCC(N(C)c2ncnc3ccc(-c4ccc5oc(N)nc5c4)cc23)CC1`, the IC50 was below 1 µM in experiment [1], below 0.1 µM in experiment [2], below 0.1 µM in experiment [3] and below 0.1 µM in experiment [4].
With `CCOC(=O)N1CC=C(c2cnc3ccc(-c4ccc5oc(N)nc5c4)nc3n2)CC1`, the IC50 in experiment [1] was below 10 µM; in experiment [2], below 0.1 µM; in experiment [3], below 0.1 µM; in experiment [4] it was below 10 µM.
`CC(N)C(=O)N1CCN(c2cnc3ccc(-c4ccc5oc(N)nc5c4)cc3n2)CC1` (centres unmarked): the IC50 was below 1 µM in experiment [1], below 0.1 µM in experiment [2], below 10 µM in experiment [3] and below 1 µM in experiment [4].
